{"source": "patent US20100173853A1", "about": "“COMBINATION OF MONOSACCHARIDES WITH ASCORBIC ACID AND USE THEREOF” (L'OREAL, priority 2008, published 2010)", "key": {"[1]": {"system": "keratinocytes (HaCat line)", "assay": "Proliferation of keratinocytes in medium deficient in growth factors (Cyquant, Nile red, XTT probes)", "assay_type": "cell-based", "settings": "HaCat keratinocytes in medium depleted in growth factors", "method": "The keratinocytes (HaCat line) are cultured under two conditions: whole defined culture medium (standard condition) and culture medium deficient in growth factors. This deficient medium gives rise to a controlled delay in cell proliferation. Under these conditions, it is then possible to measure the effects of compounds capable of compensating for the deficiency in growth factors of the culture medium and thus of relaunching the cell multiplication and/or of stimulating cell metabolism.\nThe keratinocyte proliferation is measured by means of three markers on the same cell population: the level of DNA, which is proportional to the number of cells (Cyquant probe), the level of constituent polar lipids of cell membranes (Nile red probe) and the mitochondrial respiration, which reflects the general cell metabolism (XTT probe)."}, "type I procollagen": {"system": "type I procollagen", "assay": "Synthesis of procollagen 1 in reconstructed skin (indirect immunofluorescence)", "assay_type": "cell-based, human"}, "Collagen VI Col6A1": {"system": "Collagen VI Col6A1", "assay": "Expression of collagen VI alpha 1-chain by dermal fibroblasts (RNA)", "assay_type": "cell-based", "settings": "human dermal fibroblasts; Rhamnose 1 mM, Vitamin C 50 μM, alone or associated; D3 or D5 not stated", "method": "(§1) This example describes the synergic effect of the association of vitamin C with L-rhamnose on the expression of the alpha 1-chain of collagens VI and XII of the extracellular matrix.\n(§2) Human dermal fibroblasts (used at the ninth passage) are obtained from mammary or abdominal surgeries. The culture medium implemented is DMEM, supplemented with: • fetal calf serum (FCS), 10% • L-Glutamine, 2 mM (Invitrogen 25030024), • Penicillin (50 UI/mL), streptomycin (50 μg/mL), (Invitrogen 15070063), • Sodium pyruvate (Invitrogen 11360039), and • Non essential amino acids (Invitrogen 11140035).\n(§3) Fibroblasts are cultured (D0) in supplemented DMEM medium as described above, incubated at 37° C. znd 5% CO2 in an atmosphere saturated with water. After adhesion of the cells (D1), the culture medium is removed and replaced with medium containing vitamin C, L-rhamnose or their association. The different stimulation conditions (vitamin C 25 μM, 50 μM, Rhamnose 1 mM and the different associations) were performed in triplicate (12 well dish). Studies of the expression of the different collagenes were performed on D3 and D5.\n(§4) For each condition and at each time (D3 and D5), the supernatants are removed and the cell lawns are lysed. […]\n(§5) RNAs are then quantified in fluorescence according to the Ribogreen protocol (Quan-it, Ribogreen RNA assay kit, invitrogen R11490) and reading with Tecan Safire. […]"}, "Collagen XII Cola12A1": {"system": "Collagen XII Cola12A1", "assay": "Expression of collagen XII alpha 1-chain by dermal fibroblasts (RNA)", "assay_type": "cell-based", "settings": "human dermal fibroblasts; Rhamnose 1 mM, Vitamin C 50 μM, alone or associated; D3 or D5 not stated", "method": "as §1, §2, §3, §4, §5"}}, "note": "Entries after “also recorded” stand apart in the source; their conditions may differ."}
{"molecule": "C[C@H](O)[C@H](O)[C@@H](O)[C@@H](O)C=O", "note": "[Rhamnose, L-rhamnose]", "values": [{"measurement": "keratinocyte proliferation (efficacy)", "setting": "[1]; 500 μM", "value": "already show efficacy"}, {"measurement": "level of DNA (Cyquant)", "setting": "[1]; 1 mM, vs untreated control", "value": "significantly increased"}, {"measurement": "level of polar lipids (Nile red signal)", "setting": "[1]; 1 mM, vs untreated control", "value": "significantly increased"}, {"measurement": "mitochondrial respiration (XTT signal)", "setting": "[1]; 1 mM, vs untreated control", "value": "significantly increased"}, {"measurement": "procollagen 1 synthesis (green fluorescence) vs control skin", "setting": "type I procollagen; 1 mM, 120 hours", "value": "stimulation; also recorded: marked increase"}, {"measurement": "procollagen 1 synthesis", "setting": "type I procollagen; 5 mM", "value": "stimulation"}, {"measurement": "intensity of the biosynthesis of Collagen VI (Col6A1) compared to the control that is at 100", "setting": "Collagen VI Col6A1", "value": 109}, {"measurement": "intensity of the biosynthesis of Collagen XII (Cola12A1) compared to the control that is at 100", "setting": "Collagen XII Cola12A1", "value": 115}]}
{"molecule": "O=C1O[C@H]([C@@H](O)CO)C(O)=C1O", "note": "[Vitamin C, ascorbic acid]", "values": [{"measurement": "intensity of the biosynthesis of Collagen VI (Col6A1) compared to the control that is at 100", "setting": "Collagen VI Col6A1", "value": 154}, {"measurement": "intensity of the biosynthesis of Collagen XII (Cola12A1) compared to the control that is at 100", "setting": "Collagen XII Cola12A1", "value": 124}]}
